According to patent US20100256107A1, “PREPARATION COMPOSITION” (Dainippon Sumitomo Pharma Co., Ltd., priority 2007, published 2010):

Tests used:
[1] = Control of coloration in an aqueous solution formulation containing sodium carbonate (absorbance 380 nm); format: physicochemical; settings: for change in absorbance, just after dissolution / change in absorbance, preservation time 1 hr / change in absorbance, preservation time 2 hr / change in absorbance, preservation time 3 hr / change in absorbance, preservation time 4 hr / change in absorbance, preservation time 5 hr / change in absorbance, preservation time 6 hr: 25° C., 380 nm
Experimental: Multiple vials were prepared, and sodium carbonate, Compound A and imipenem in amounts indicated in Table 14 were weighed, respectively and each mixture was put in each vial. A physiological saline (100 ml) was added to each vial to be dissolved. Coloration (change of color) just after dissolution and when the solution was preserved at one hour intervals for 6 hours at 25° C. were measured by absorbency on Compound A and imipenem.
• Condition of measurement by spectrophotometer • cell: quartz 12.5 mm×12.5 mm×45 mm, capacity 3.5 ml • wavelength: 380 nm • measurement temperature: 25° C. • instrument: UV-2200A (Shimadzu)
The numbers described in columns of “just after dissolution” and each “preservation time” on Table 15 show values of change in absorbance just after dissolution when measured under the above conditions.

[2] = Stability in an aqueous solution formulation containing sodium carbonate (HPLC); format: physicochemical
Experimental: Multiple vials were prepared, and Compound A and sodium carbonate in amounts indicated in Table 9 were weighed and put in each vial. A physiological saline (100 ml) was added to each vial, amounts Compound A and its degradation, Compounds B and C were measured just after dissolving and after preserving for 6 hours at 25° C.
HPLC was Measured Under the Same Conditions as Test Example 1.
The numbers described in columns of “just after dissolution” and “after preservation for 6 hours at 25° C.” on Table 10 show area % per total peaks which appear until 55 minutes under the above HPLC conditions.

[3] = 0.5 g/vial + sodium carbonate 0.0 mg/vial in physiological saline 100 ml
[4] = 0.5 g/vial + sodium carbonate 1.0 mg/vial in physiological saline 100 ml
[5] = 0.5 g/vial + sodium carbonate 1.5 mg/vial in physiological saline 100 ml
[6] = 0.5 g/vial + sodium carbonate 2.0 mg/vial in physiological saline 100 ml
[7] = 0.5 g/vial + sodium carbonate 2.5 mg/vial in physiological saline 100 ml
[8] = 0.5 g/vial + sodium carbonate 3.0 mg/vial in physiological saline 100 ml
[9] = Comp. A 0.5 g/vial + sodium carbonate 0.0 mg/vial in physiological saline 100 ml
[10] = Comp. A 0.5 g/vial + sodium carbonate 1.0 mg/vial in physiological saline 100 ml
[11] = Comp. A 0.5 g/vial + sodium carbonate 1.5 mg/vial in physiological saline 100 ml
[12] = Comp. A 0.5 g/vial + sodium carbonate 2.0 mg/vial in physiological saline 100 ml
[13] = Comp. A 0.5 g/vial + sodium carbonate 2.5 mg/vial in physiological saline 100 ml
[14] = Comp. A 0.5 g/vial + sodium carbonate 3.0 mg/vial in physiological saline 100 ml
[15] = Comp. A 0.5 g/vial + sodium carbonate 3.5 mg/vial in physiological saline 100 ml
[16] = Comp. A 0.5 g/vial + sodium carbonate 4.0 mg/vial in physiological saline 100 ml
[17] = Comp. A 0.5 g/vial + sodium carbonate 5.0 mg/vial in physiological saline 100 ml

C[C@H]1C=C(c2csc(SC3=C(C(=O)O)N4C(=O)[C@H]([C@@H](C)O)[C@H]4[C@H]3C)n2)CN1 [Compound A, (4R,5S,6S)-6-[(1R)-1-hydroxyethyl]-4-methyl-3-({4-[(5S)-5-methyl-2,5-dihydro-1H-pyrrol-3-yl]-1,3-thiazol-2-yl}sulfanyl)-7-oxo-1-azabicyclo[3.2.0]hept-2-ene-2-carboxylic acid]
coloration by the visual inspection compared with a solution just after dissolution ([1]; 1.5 mg additive per 500 mg (printed sodium bicarbonate; Table 15: sodium carbonate), 6 hours at 25° C.): coloration was not observed by the visual inspection | change in absorbance, just after dissolution [1, 3]: 0.00 Abs | change in absorbance, preservation time 1 hr [1, 3]: 0.01 Abs | change in absorbance, preservation time 2 hr [1, 3]: 0.03 Abs | change in absorbance, preservation time 3 hr [1, 3]: 0.05 Abs | change in absorbance, preservation time 4 hr [1, 3]: 0.07 Abs | change in absorbance, preservation time 5 hr [1, 3]: 0.11 Abs | change in absorbance, preservation time 6 hr [1, 3]: 0.13 Abs | change in absorbance, just after dissolution [1, 4]: 0.00 Abs | change in absorbance, preservation time 1 hr [1, 4]: 0.00 Abs | change in absorbance, preservation time 2 hr [1, 4]: 0.00 Abs | change in absorbance, preservation time 3 hr [1, 4]: 0.01 Abs | change in absorbance, preservation time 4 hr [1, 4]: 0.02 Abs | change in absorbance, preservation time 5 hr [1, 4]: 0.03 Abs | change in absorbance, preservation time 6 hr [1, 4]: 0.04 Abs | change in absorbance, just after dissolution [1, 5]: 0.00 Abs | change in absorbance, preservation time 1 hr [1, 5]: 0.00 Abs | change in absorbance, preservation time 2 hr [1, 5]: 0.00 Abs | change in absorbance, preservation time 3 hr [1, 5]: 0.00 Abs | change in absorbance, preservation time 4 hr [1, 5]: 0.00 Abs | change in absorbance, preservation time 5 hr [1, 5]: 0.01 Abs | change in absorbance, preservation time 6 hr [1, 5]: 0.02 Abs | change in absorbance, just after dissolution [1, 6]: 0.00 Abs | change in absorbance, preservation time 1 hr [1, 6]: 0.00 Abs | change in absorbance, preservation time 2 hr [1, 6]: 0.00 Abs | change in absorbance, preservation time 3 hr [1, 6]: 0.00 Abs | change in absorbance, preservation time 4 hr [1, 6]: 0.00 Abs | change in absorbance, preservation time 5 hr [1, 6]: 0.00 Abs | change in absorbance, preservation time 6 hr [1, 6]: 0.01 Abs | change in absorbance, just after dissolution [1, 7]: 0.00 Abs | change in absorbance, preservation time 1 hr [1, 7]: 0.00 Abs | change in absorbance, preservation time 2 hr [1, 7]: 0.00 Abs | change in absorbance, preservation time 3 hr [1, 7]: 0.00 Abs | change in absorbance, preservation time 4 hr [1, 7]: 0.00 Abs | change in absorbance, preservation time 5 hr [1, 7]: 0.00 Abs | change in absorbance, preservation time 6 hr [1, 7]: 0.00 Abs | change in absorbance, just after dissolution [1, 8]: 0.00 Abs | change in absorbance, preservation time 1 hr [1, 8]: 0.00 Abs | change in absorbance, preservation time 2 hr [1, 8]: 0.00 Abs | change in absorbance, preservation time 3 hr [1, 8]: 0.00 Abs | change in absorbance, preservation time 4 hr [1, 8]: 0.00 Abs | change in absorbance, preservation time 5 hr [1, 8]: 0.00 Abs | change in absorbance, preservation time 6 hr [1, 8]: 0.00 Abs | suppression of coloration of the solution ([1]; at least 1.5 mg (0.003 part by weight) of sodium carbonate per 500 mg): observed | Comp. A after preservation for 6 hrs. 25° C. [2, 9]: 96.3 area % | Comp. A just after dissolution [2, 9]: 99.0 area % | Comp. B after preservation for 6 hrs. 25° C. [2, 9]: 2.6 area % | Comp. B just after dissolution [2, 9]: 0.5 area % | Comp. C after preservation for 6 hrs. 25° C. [2, 9]: 0.4 area % | Comp. C just after dissolution [2, 9]: 0.0 area % | Comp. A after preservation for 6 hrs. 25° C. [2, 10]: 96.7 area % | Comp. A just after dissolution [2, 10]: 99.0 area % | Comp. B after preservation for 6 hrs. 25° C. [2, 10]: 2.6 area % | Comp. B just after dissolution [2, 10]: 0.6 area % | Comp. C after preservation for 6 hrs. 25° C. [2, 10]: 0.2 area % | Comp. C just after dissolution [2, 10]: 0.0 area % | Comp. A after preservation for 6 hrs. 25° C. [2, 11]: 96.5 area % | Comp. A just after dissolution [2, 11]: 98.9 area % | Comp. B after preservation for 6 hrs. 25° C. [2, 11]: 2.8 area % | Comp. B just after dissolution [2, 11]: 0.5 area % | Comp. C after preservation for 6 hrs. 25° C. [2, 11]: ≤ 0.1 area % | Comp. C just after dissolution [2, 11]: 0.0 area % | Comp. C after preservation for 6 hrs. 25° C. ([2]; Comp. A 0.5 g/vial + sodium carbonate 1.5 mg/vial in physiological saline 100 ml, listed as Comp. A): 0.0 area % | Comp. A after preservation for 6 hrs. 25° C. [2, 12]: 96.2 area % | Comp. A just after dissolution [2, 12]: 99.0 area % | Comp. B after preservation for 6 hrs. 25° C. [2, 12]: 3.0 area % | Comp. B just after dissolution [2, 12]: 0.5 area % | Comp. C after preservation for 6 hrs. 25° C. [2, 12]: 0.0 area % | Comp. C just after dissolution [2, 12]: 0.0 area % | Comp. A after preservation for 6 hrs. 25° C. [2, 13]: 96.0 area % | Comp. A just after dissolution [2, 13]: 98.9 area % | Comp. B after preservation for 6 hrs. 25° C. [2, 13]: 3.2 area % | Comp. B just after dissolution [2, 13]: 0.5 area % | Comp. C after preservation for 6 hrs. 25° C. [2, 13]: 0.0 area % | Comp. C just after dissolution [2, 13]: 0.0 area % | Comp. A after preservation for 6 hrs. 25° C. [2, 14]: 95.7 area % | Comp. A just after dissolution [2, 14]: 99.0 area % | Comp. B after preservation for 6 hrs. 25° C. [2, 14]: 3.6 area % | Comp. B just after dissolution [2, 14]: 0.5 area % | Comp. C after preservation for 6 hrs. 25° C. [2, 14]: 0.0 area % | Comp. C just after dissolution [2, 14]: 0.0 area % | Comp. A after preservation for 6 hrs. 25° C. [2, 15]: 95.4 area % | Comp. A just after dissolution [2, 15]: 98.9 area % | Comp. B after preservation for 6 hrs. 25° C. [2, 15]: 3.8 area % | Comp. B just after dissolution [2, 15]: 0.5 area % | Comp. C after preservation for 6 hrs. 25° C. [2, 15]: 0.0 area % | Comp. C just after dissolution [2, 15]: 0.0 area % | Comp. A after preservation for 6 hrs. 25° C. [2, 16]: 95.1 area % | Comp. A just after dissolution [2, 16]: 99.0 area % | Comp. B after preservation for 6 hrs. 25° C. [2, 16]: 4.1 area % | Comp. B just after dissolution [2, 16]: 0.5 area % | Comp. C after preservation for 6 hrs. 25° C. [2, 16]: 0.0 area % | Comp. C just after dissolution [2, 16]: 0.0 area % | Comp. A after preservation for 6 hrs. 25° C. [2, 17]: 94.8 area % | Comp. A just after dissolution [2, 17]: 98.9 area % | Comp. B after preservation for 6 hrs. 25° C. [2, 17]: 4.5 area % | Comp. B just after dissolution [2, 17]: 0.6 area % | Comp. C after preservation for 6 hrs. 25° C. [2, 17]: 0.0 area % | Comp. C just after dissolution [2, 17]: 0.0 area % | reduction of amount of Compound A ([2]; sodium carbonate increased to 5 mg from 2 mg per Compound A 500 mg, 6 hours at 25° C.): 1.4%
